“Also recorded” adds a separate entry of the source.
Assays:
[1] = tested on: Cholecystokinin A Receptor (CCKAR) expressing organoids; assay: CCK exposure of organoids: ductal response and amylase ELISA; type: cell-based, human
From the text: FIG. 3A-3O. Modeling human hepato-biliary-pancreatic organogenesis. 3A. Illustration of dissection of PROX1 positive region from HBP organoids and image of before/after dissection. 3B. Optimization of cultured system with 1) Floating, 2) Embedded into Matrigel™, 3) Embedded into Matrigel™ and cultured with Transwell™ from D13, 4). Dissected, embedded into Matrigel™, and cultured with Transwell™ from D13. […] 3C. Morphogenesis of boundary organoids through 2 days from Day 13. 3D. Morphogenetical change of PROX1 dissected tissue from boundary organoids through 30 days of air-liquid interface cultured system. 3E. Stereomicroscopic image of Day 37 organoids. 3F. Boundary organoid has tdTomato expressing hepatobiliary tissues branched out for putative pancreatic domains, similar to cultured mouse E10.5 derived hepato-biliary-pancreas. […]
To determine whether longer-term culture can produce more mature tissue, organoids were cultured until D90. […] Furthermore, the immunofluorescent staining detected the expression of the pancreas marker PDX1 and NGN3, the liver marker PROX1, and the bile duct markers CK19 and SOX9 in the organoids (FIG. 3H). […] Given the Cholecystokinin A Receptor (CCKAR) expression in the organoids (FIG. 3N), organoids were exposed to CCK and the pancreatic secretory function was analyzed with an amylase Enzyme-linked immune sorbent assay (ELISA). […]

bAP organoids = bAP organoids exposed to RA signaling agonists or antagonists, gene expression by qPCR; type: cell-based, human; conditions: bAP organoids exposed at D9; Day 11, three days culture; FIG. 2G
Description: FIG. 2A-2I. Self-emergence of hepato-biliary-pancreatic progenitors from boundary organoid without inductive factors. 2A. Generating PROX1-tdTomato reporter line by CRISPR-Cas9 gene editing system. 2B. PROX1-tdTomato expression in established PROX1 reporter iPSCs from Day 9 to Day 11. 2C. PROX1-tdTomato positive area in each organoid. AP, AA and PP combinations were evaluated. The tdTomato expression was confirmed in the cell membrane of boundary organoids in AP combination. 2D. Hepatic invagination in mouse liver primordium explant (Prox1::GFP) and human iPSC-derived boundary organoids (PROX1::m-tdTomato). 2E. The immunostaining of PROX1 in E8.75 mice embryo and boundary organoids at Day 13. 2F. Transcriptomic characterization of boundary organoids. Anterior, boundary, and posterior domains were dissected, separated, and applied for RNA sequencing. […] Heatmap was separated into 8 detailed groups (C1-C8) by unbiased hierarchical clustering. […] 2G. Gene expression of HHEX, PDX1, SOX2, and CDX2 at Day 11 with three days culture of retinoic acid, BMS493, R-75251, or WIN18446. 2H. […]
In support, Applicant exposed the bAP organoids at D9 to various RA signaling agonists or antagonists. […] To implicate the cellular source for RA in the model system, RA signaling related genes were assessed in the isolated epithelial and non-epithelial cell populations. […]

posterior gut spheroid = assay: BMS493 pretreatment of anterior or posterior gut spheroids before fusion, HHEX and PDX1 immunostaining; type: cell-based, human; conditions: only posterior gut spheroid exposed prior to fusion; vs untreated control; FIG. 10
From the text: FIG. 10. Abolishment of HHEX and PDX1 induction in posterior gut specific BMS493. BMS493 pretreated anterior or posterior gut spheroids were fused to induce HBP anlage formation. […] Scale bar: 200 μm
(§1) In support, Applicant exposed the bAP organoids at D9 to various RA signaling agonists or antagonists. […] Lateral plate mesoderm population acts as an activator for RA signaling during the specification in vivo^22-24. To implicate the cellular source for RA in the model system, RA signaling related genes were assessed in the isolated epithelial and non-epithelial cell populations. […] Complementing this, exposing only the posterior gut spheroid, and not the anterior gut spheroid to BMS493 prior to fusion suppressed the protein-level induction of HHEX and PDX1 (FIG. 10). […] Taken together, HBP progenitor self-specification derived from posterior region in boundary organoid model system is regulated by RA signals, and may be supported by co-differentiating anterior non-epithelial, most likely mesenchymal, lineages.
For whole mount immunohistochemical staining, spheroid and organoid were collected from Matrigel™ and removed remaining Matrigel™ by treating with Cell recovery solution at 4° C. for 30 min. The tissues were washed by PBS and were fixed in 4% PFA at 4° C. for overnight. […]

[2] = tested on: E9.0 PROX1::GFP reporter mouse embryo; assay: E9.0 PROX1::GFP reporter mouse whole embryo culture with BMS493; conditions: after 2 days, vs DMSO control, FIGS. 11A and 11B
From the text: FIGS. 11A and 11B. PROX1 inhibition by BMS493 exposure with E9.0 PROX1::GFP reporter mouse embryo explant culture. […] Retinoic acid receptors antagonist BMS493 treated group was compared with control (adding DMSO) group. 11A. Bright field image and GFP fluorescent image for embryo after culture. 11B. The area of GFP expressing parts was quantified from GFP image in (a). Scale bar: 1 mm
as §1
The Rotator-type Bottle Culture System (Ikemoto Scientific Technology Co., Ltd) was used for whole embryo culture. […]

Row | Compound | amylase secretion in supernatants (ELISA) ([1]; CCK treated vs untreated controls, 3 days-CCK, FIG. 3P) | ductal structures response to CCK ([1]; on the following day, FIG. 3O) | gene expression of HHEX (bAP organoids) | gene expression of PDX1 (bAP organoids) | protein-level induction of HHEX and PDX1 at boundary (posterior gut spheroid) | PROX1 expressing cells (GFP area) [2]
1 | cholecystokinin [CCK] | increased | constricted | – | – | – | –
2 | CC1(C)CC=C(C#Cc2ccccc2)c2cc(/C=C/c3ccc(C(=O)O)cc3)ccc21 [BMS493] | – | – | strongly suppressed | strongly suppressed | suppressed; also recorded: inhibited | significant inhibition

— patent publication US12421500B2, “Hepato-biliary-pancreatic tissues and methods of making same” (CHILDREN'S HOSPITAL MEDICAL CENTER, priority 2018, dated 2025)
